Patent US20120095030A1, “METHODS AND KITS TO PREDICT THERAPEUTIC OUTCOME OF TYROSINE KINASE INHIBITORS” (THE TRANSLATIONAL GENOMICS RESEARCH INSTITUTE, priority 2009, published 2012)
pIC50: −log10 of the molar value. Read-outs that look alike come from different tables or passages of the source.

Assays:
Format in all cases: cell-based
[1] = test system: H1703 NSCLC cell line; assay: AlamarBlue proliferation assay, H1703; conditions: Homo sapiens; for pIC50: NCI-H1703, H1703, AlamarBlue proliferation, 72 hours, read-out: IC50
Description: (§1) Cytotoxicity is measured using fluorescence spectrophotometry.
(§2) TKI sensitivity was determined in NSCLC cell lines. Vandetanib and sunitinib sensitivity was measured in seven NSCLC cell lines. Erlotinib sensitivity was measured in nine NSCLC cell lines. An AlamarBlue proliferation assay at 72 hours was used to measure TKI sensitivity. GraphPad Prism 4.01 was used to determine IC50 values. Expression of seven miRNAs was measured by qRT-PCR. qRT-PCR data were normalized to the reference RNU6 and fold changes were computed against the selected sensitive cell line for each drug. A two-sided z-test was used to compute the p-values for the fold changes. A score was calculated for each miRNA/drug combination to see whether a miRNA can determine resistance across cell lines. Fold changes were first ternarized and assigned a value of +1, −1, or 0. Elevated miRNA expression relative to control (fold change>1 AND p-value<0.05) was assigned a value of +1. Reduced miRNA expression relative to control (fold change<1 AND p-value<0.05) was assigned a value of −1. Any non-significant fold change (p-value>0.05) was assigned a value of 0. These values were then multiplied by a value of +1 or −1 as assigned by the resistance characteristics of the cell line: Resistant cell lines were assigned a value=+1. Sensitive cell lines were assigned a value=−1. The final score was computed by the sum of the points for the cells lines divided by the number of cell lines (the reference cell line was not used in computing the scores).

[2] = test system: H2122 NSCLC cell line; assay: AlamarBlue proliferation assay, H2122; conditions: Homo sapiens; for pIC50: NCI-H2122, H2122, AlamarBlue proliferation, 72 hours, read-out: IC50
Description: as §1, §2

[3] = test system: H1703 Sunitinib resistant line A (H1703 SRa); assay: Alamar blue assay, H1703 SRa; conditions: Homo sapiens, NCI-H1703, read-out: Sunitinib IC50(μM), Example 3, mean of three experiments
Description: (§3) GraphPad Prism 4.01 was used to calculate IC50 values. […] GenoSensor GenoExplorer™ microRNA Expression System (Sanger miRNA Registry version 14 containing probes for 904 mature miRNAs and 450 pre-miRNAs) was used to screen miR expression. Differences in miRs expression between the parent and resistant cells were identified using at test with Benjamini-Hochberg correction and validated by qPCR. A score was calculated for each miRNA to determine whether a miRNA can predict SR.

[4] = test system: H520 NSCLC cell line; assay: AlamarBlue proliferation assay, H520; conditions: Homo sapiens; for pIC50: NCI-H520, H520, AlamarBlue proliferation, 72 hours, read-out: IC50
Description: as §1, §2

[5] = test system: H1703 Sunitinib resistant line B (H1703 SRb); assay: Alamar blue assay, H1703 SRb; conditions: Homo sapiens, NCI-H1703, read-out: Sunitinib IC50(μM), Example 3, mean of three experiments
Description: as §3

[6] = test system: H358 NSCLC cell line; assay: AlamarBlue proliferation assay, H358; conditions: Homo sapiens; for pIC50: NCI-H358, H358, AlamarBlue proliferation, 72 hours, read-out: IC50
Description: as §1, §2

[7] = test system: A549 NSCLC cell line; assay: AlamarBlue proliferation assay, A549; conditions: Homo sapiens; for pIC50: A549, AlamarBlue proliferation, 72 hours, read-out: IC50
Description: as §1, §2

[8] = test system: H460 NSCLC cell line; assay: AlamarBlue proliferation assay, H460; conditions: Homo sapiens; for pIC50: NCI-H460, H460, AlamarBlue proliferation, 72 hours, read-out: IC50
Description: as §1, §2

[9] = test system: NSCLC cell lines classified as resistant; assay: AlamarBlue proliferation assay, NSCLC lines classified as resistant; conditions: read-out: IC50s of the remaining lines classified as resistant
Description: (§4) Cells in the log phase of expansion are harvested and counted. The cells are then adjusted to a density of 1×10^4 cells/ml, though the optimum cell density may vary between cell types. […] The AlamarBlue® reagent is mixed, and then aseptically added to the cells in an amount around 10% of the well volume. Cells are incubated in the presence of the reagent from 4-8 hours. Cytotoxicity is measured using fluorescence spectrophotometry. Absorbance is measured at 570 nm and 600 nm blanked in a plate containing medium only. To calculate the percent difference in reduction between treated and control cells in Percentage difference between treated and control cells
(§5) TKI sensitivity was determined in NSCLC cell lines. […] An AlamarBlue proliferation assay at 72 hours was used to measure TKI sensitivity. GraphPad Prism 4.01 was used to determine IC50 values.

[10] = test system: HCC827 NSCLC cell line; assay: AlamarBlue proliferation assay, HCC827; conditions: Homo sapiens, 72 hours
Description: One method of measuring IC50 by AlamarBlue proliferation that may be used in determining an IC50 is as follows:
as §4, §5

[11] = test system: H2073 NSCLC cell line; assay: AlamarBlue proliferation assay, H2073; conditions: NCI-H2073, 72 hours
Description: as §1
as §2, with “The final score was computed by the sum of the points for the cells lines divided by the number of cell lines (the reference cell line was not used in computing the scores).” left out

[12] = test system: HCC4006 NSCLC cell line; assay: AlamarBlue proliferation assay, HCC4006; conditions: Homo sapiens, 72 hours
Description: as §1
as §2, with “The final score was computed by the sum of the points for the cells lines divided by the number of cell lines (the reference cell line was not used in computing the scores).” left out

[13] = range across resistant NSCLC lines, 72 hours

Row | IC50 ([1]; NCI-H1703, read-out: Sunitinib IC50(μM), H1703 control, Example 3, mean of three experiments) | pIC50 [1] | IC50 ([2]; NCI-H2122, read-out: Sunitinib IC50(μM), H2122, Example 3, mean of three experiments) | pIC50 [2] | IC50 [3] | IC50 ([4]; NCI-H520, read-out: Sunitinib IC50(μM), H520, Example 3, mean of three experiments) | pIC50 [4] | IC50 [5] | IC50 ([6]; NCI-H358, read-out: Sunitinib IC50(μM), H358, Example 3, mean of three experiments) | pIC50 [6] | IC50 ([7]; read-out: Sunitinib IC50(μM), A549, Example 3, mean of three experiments) | pIC50 [7] | IC50 ([8]; NCI-H460, read-out: Sunitinib IC50(μM), H460, Example 3, mean of three experiments) | pIC50 [8] | pIC50 [10] | SMILES | pIC50 [9, 13] | pIC50 [11] | pIC50 ([9]; 72 h) | pIC50 [12]
1 | 0.13 µM | 6.29 | 4.8 µM | 5.32 | 7.6 µM | 8.2 µM | 5.09 | 4.37 µM | 14.2 µM | 4.85 | 5.5 µM | 5.26 | 5.6 µM | 5.25 |  | CCN(CC)CCNC(=O)c1c(C)[nH]c(/C=C2\C(=O)Nc3ccc(F)cc32)c1C [Sunitinib, N-[2-(diethylamino)ethyl]-5-[(Z)-(5-fluoro-1,2-dihydro-2-oxo-3H-indol-3-ylidine)methyl]-2,4-dimethyl-1H-pyrrole-3-carboxamide] | 4.85 to 5.32 |  |  | 
2 |  | 5.68 |  | 5.23 |  |  | 4.92 |  |  | 5.38 |  | 5.01 |  | 4.86 | 6.26 | COc1cc2c(Nc3ccc(Br)cc3F)ncnc2cc1OCC1CCN(C)CC1 [Vandetanib] | 4.86 to 5.68 |  |  | 

Row | SMILES | IC50 ([1]; NCI-H1703, read-out: Sunitinib IC50(μM), H1703 control, Example 3, mean of three experiments) | pIC50 [1] | IC50 ([2]; NCI-H2122, read-out: Sunitinib IC50(μM), H2122, Example 3, mean of three experiments) | pIC50 [2] | IC50 [3] | IC50 ([4]; NCI-H520, read-out: Sunitinib IC50(μM), H520, Example 3, mean of three experiments) | pIC50 [4] | IC50 [5] | IC50 ([6]; NCI-H358, read-out: Sunitinib IC50(μM), H358, Example 3, mean of three experiments) | pIC50 [6] | IC50 ([7]; read-out: Sunitinib IC50(μM), A549, Example 3, mean of three experiments) | pIC50 [7] | IC50 ([8]; NCI-H460, read-out: Sunitinib IC50(μM), H460, Example 3, mean of three experiments) | pIC50 [8] | pIC50 [10] | pIC50 [9, 13] | pIC50 [11] | pIC50 ([9]; 72 h) | pIC50 [12]
3 | C#Cc1cccc(Nc2ncnc3cc(OCCOC)c(OCCOC)cc23)c1 [Erlotinib, N-(3-ethynylphenyl)-6,7-bis(2-methoxyethoxy)quinazolin-4-amine] |  | < 4.30 |  | 4.91 |  |  | < 4.30 |  |  | 4.54 |  | < 4.30 |  | 4.41 |  |  | 5.01 | ≤ 5.01 | 7.70
